The source of these data is patent US20040082664A1, “Derivatives of hydroxyphenyl, a method for preparing thereof and their pharmaceutical composition” (priority 2002, published 2004).

Bounds are passed on as bounds.

Assay [1] addresses T1, GST-fused lck SH2 domain (Homo sapiens, UniProt P06239).
T1 construct: GST (Glutathione transferase)-fused lck SH2 domain
The experiment in a line: Inhibition of in vitro binding of lck SH2 domain to its cognate pYEEI peptide (BIAcore 2000). To be noted: IC50 class for inhibition of GST-lckSH2 binding to immobilized biotinylated […]pYEEIPI peptide; read-out: BOND DEGREE WITH SH2 OF 1ck. The protocol:
The present inventors investigated the inhibition activity of phenyl derivatives on the interaction of GST (Glutathione transferase)-fused lck SH2 domain and a peptide […]pYEEIPI (comprising the sequence PYEEI, a cognate peptide of Lck SH2) by using a real time sensorgram (BIAcore 2000).
At first, the biotinylated peptide was fixed on the surface of BIAcore analysis apparatus and then GST-lckSH2 protein was injected over the surface of the immobilized peptides. The binding of GST-lck SH2 with the peptide is represented as the resonance units (referred as “RU” hereinafter) and 1,000 RU corresponds to a change in surface concentration of 1 ng/mm^2. The binding of GST-lck with the fixed peptide causes the change of refractory index, leading to the increase of RU. In the mean time, when the binding of GST-lck with the fixed peptide is inhibited, RU decreases. Those results are represented in Table 1.

Assay [2] concerns IL-2 promoter. Kind of assay: IL-2 promoter luciferase reporter assay in anti-CD3 activated Jurkat cells. The assay is classed as cell-based. The following applies: Homo sapiens, TCR-induced (anti-CD3) IL-2 promoter luciferase, 2 h pre-incubation. As to the method:
In order to confirm whether the compounds of the invention can pass through a cell membrane and inhibit the expression of IL-2 gene leading to T-cell proliferation, the present inventors firstly confirmed T-cell activity by detecting the activity of the luciferase fused on the downstream of IL-2 promoter.
To investigate the activity of IL-2 promoter, Jurkat cells (1×10^6) were transfected with a IL-2 reporter plasmids using Superfect™ (Qiagen Inc.). After 24 hours of transfection, Jurkat cells were pre-incubated with compounds of various concentrations (1 uM-50 uM) for 2 hours and further cultured on 35mm plate pre-coated with 5 ug/ml of anti-CD3 antibody, resulting in T cell activation. The luciferase activity was measured using Berthold luminometer LB953. The IC50 (50% inhibition concentration) of the compounds of the invention on TCR-induced IL-2 promoter activation are shown in Table 2.
For orientation: In a reporter assay the amount or activity of a reporter protein is the signal.

Assay [3] deals with skin allograft rejection. The experiment in a line: Inhibition of skin allograft rejection (Balb/c tail skin grafted onto C57BL/6 mouse). The assay is classed as in vivo. The following applies: 100 mg/kg/day into abdominal cavity from day of transplantation until complete rejection. The protocol: For the experiment, allogeneic Balb/c(H-2d) mouse-tail skin was grafted onto C57BL/6(H-2b) mouse. Generally 7-8 mice were assigned to each group. All the phenyl derivatives were dissolved in 100% ethanol, mixed with olive oil, and adjusted to the final concentration of ethanol therein less than 5%. […] Meanwhile, for the group of untreated mice, an olive oil-ethanol mixture was administered as a control. The grafted skin was monitored daily after the removal of the bandage on days 7-9. Rejection was defined as more than 80% necrosis of the graft epithelium.

Assay [4] has as its system collagen-induced rheumatoid arthritis. The experiment in a line: Inhibition of collagen-induced rheumatoid arthritis in DBA1/LacJ mice. Format: in vivo, mouse. To be noted: 50 mg/kg/day i.p. daily; day 15 after treatment (day 36 after primary immunization); sum of scores of four legs, maximum 16; mean ± standard deviation. Also on record: key: sum of 4 leg scores (0-4 each), max 16. The protocol:
After 2 weeks, booster immunization was carried out with 50 μg C II/IFA. From the 3rd week after primary immunization, compounds of the present invention were injected daily into peritoneal cavities of 6-8 mice per group for 15-20 days.
The vehicle control groups were injected daily with 100 μl of 5% ethanol-olive oil mixture in total 15-20 times. Widely used anti-rheumatic drug, Methotrexate, was dissolved in PBS and then injected to mice at 1 mg/kg/day every other day in total 8-10 times. Meanwhile, the compounds of the invention were dissolved in ethanol and then mulsified in olive oil, in which the final ethanol concentration was adjusted to 5% and the compounds of this invention was 50 mg/kg/day.
From the 3rd week after primary immunization, the extent of edema and the joint swelling was monitored everyday to determine arthritic index. Arthitic index is the sum of the arthritic scores of all 4 legs and, therefore, maximum arthritis index of 16 can be achieved (e.g., [4 (maximum arthritic score)/leg]×[4 legs/mouse]=16 (maximum arthritis index/mouse)). […] was presented by the mean arthritis index±standard deviation of each mouse group.

T1 sequence (P06239 127-224 limits assumed): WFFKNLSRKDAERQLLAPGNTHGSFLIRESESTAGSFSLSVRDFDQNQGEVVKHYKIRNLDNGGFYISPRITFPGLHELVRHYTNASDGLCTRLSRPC

Consider `NC(=O)[C@H](Cc1ccc(O)c(O)c1)NC(=O)/C=C/c1ccc(O)c(O)c1` [Example 14], for which the results for the IC50 in assay [1] and in assay [2] were 10 to 25 µM and 6.9 µM, respectively. Moreover, in assay [3], the “Survival time of skin graft tissue (days ± variance)” value (from here on “Survival time of skin graft tissue”) is given as 15.3 ± 0.9 days. In assay [4], the Arthritis index came out at 5.3 ± 1.2.

Consider `O=C(O)[C@H](Cc1ccc(O)c(O)c1)NC(=S)/C=C/c1ccc(O)c(O)c1` [Example 23, 3-(3,4-dihydroxy-phenyl)-(S)-2-[3-trans-(3,4-dihydroxy-phenyl)-thioacryloylamino]-propionic acid], for which the IC50 was 25 to 50 µM in assay [1] and 16 µM in assay [2]. For the same molecule, the “Survival time of skin graft tissue” value in assay [3] came to 13.2 ± 0.8 days. The same molecule came in with an Arthritis index in assay [4] of 6.7 ± 0.8.

Turning to `CCCOC(=O)[C@H](Cc1ccc(O)c(O)c1)NC(=S)/C=C/c1ccc(O)c(O)c1` [Example 25, 3-(3,4-dihydroxy-phenyl)-(S)-2-[3-trans-(3,4-dihydroxy-phenyl)-thioacryloylamino]-propionic acid propyl ester], the IC50 in assay [1] was 10 to 25 µM; in assay [2], 9.7 µM. The “Survival time of skin graft tissue” value in assay [3] is given as 14.8 ± 0.6 days. Further, the Arthritis index in assay [4] was determined as 5.7 ± 0.4.

Turning to `CC(C)(C)OC(=O)[C@H](Cc1ccc(O)c(O)c1)NC(=S)/C=C/c1ccc(O)c(O)c1` [Example 27, 3-(3,4-dihydroxy-phenyl)-(S)-2-[3-trans-(3,4-dihydroxy-phenyl)-thioacryloylamino]-propionic acid tert-butyl ester], the results for the IC50 in assay [1] and in assay [2] were 25 to 50 µM and 20.1 µM, respectively. Besides, the “Survival time of skin graft tissue” value in assay [3] stood at 12.3 ± 0.6 days. This molecule displayed an Arthritis index in assay [4] of 6.6 ± 1.1.

As to `NC(=O)[C@H](Cc1ccc(O)c(O)c1)NC(=S)/C=C/c1ccc(O)c(O)c1` [Example 28, 3-(3,4-dihydroxy-phenyl)-(S)-2-[3-trans-(3,4-dihydroxy-phenyl)-thioacryloylamino]-propioneamide], the IC50 in assay [1] is 10 to 25 µM; in assay [2], 14.1 µM. Also, the “Survival time of skin graft tissue” value in assay [3] was determined as 13.9 ± 0.9 days. In addition, the Arthritis index in assay [4] is on record as 5.8 ± 0.6.

On to `COC(=O)[C@H](Cc1ccc(O)c(O)c1)N(C)C(=O)/C=C/c1ccc(O)c(O)c1` [Example 36, 3-(3,4-dihydroxy-phenyl)-(S)-2-{[3-trans-(3,4-dihydroxy-phenyl)-acryloyl]-methyl-amino}-propionic acid methyl ester], for which the IC50 in assay [1] is 25 to 50 µM; in assay [2], 15 µM. For the same molecule, the “Survival time of skin graft tissue” value in assay [3] is listed as 12.9 ± 0.9 days. Besides, the Arthritis index in assay [4] was 6.1 ± 1.9.

As for `CCCOC(=O)[C@H](Cc1ccc(O)c(O)c1)N(C)C(=O)/C=C/c1ccc(O)c(O)c1` [Example 39, 3-(3,4-dihydroxy-phenyl)-(S)-2-{[3-trans-(3,4-dihydroxy-phenyl)-acryloyl]-methyl-amino}-propionic acid propyl ester], the IC50 in assay [1] was 10 to 25 µM; in assay [2], 9.7 µM. Besides, the “Survival time of skin graft tissue” value in assay [3] stood at 14.1 ± 1.2 days. In addition, in assay [4], the Arthritis index was 5.7 ± 1.2.

On to `CN(C(=O)/C=C/c1ccc(O)c(O)c1)[C@@H](Cc1ccc(O)c(O)c1)C(=O)OC(C)(C)C` [Example 41, 3-(3,4-dihydroxy-phenyl)-(S)-2-{[3-trans-(3,4-dihydroxy-phenyl)-acryloyl]-methyl-amino}-propionic acid tert-butyl ester], for which the IC50 in assay [1] is 25 to 50 µM; in assay [2] it was 15.7 µM. For the same molecule, the “Survival time of skin graft tissue” value in assay [3] came to 13.7 ± 0.6 days. The Arthritis index in assay [4] was 6.7 ± 1.6.

For `CN(C(=O)/C=C/c1ccc(O)c(O)c1)[C@@H](Cc1ccc(O)c(O)c1)C(N)=O` [Example 42, N-[l-carbamoyl-2-(3,4-dihydroxy-phenyl)-ethyl]-(S)-3-trans-(3,4-dihydroxy-phenyl)-N-methyl-acrylamide], the IC50 is 10 to 25 µM in assay [1] and 14.6 µM in assay [2]. For the same molecule, the “Survival time of skin graft tissue” value in assay [3] is listed as 14.3 ± 0.9 days. In assay [4], this molecule had an Arthritis index of 5.1 ± 1.9.

With `O=C(/C=C/c1ccc(O)c(O)c1)NCCc1ccc(O)c(O)c1` [Example 43, 3-(3,4-dihydroxy-phenyl)-N-[2-trans-(3,4-dihydroxy-phenyl)-ethyl]-acrylamide], the IC50 in assay [1] was 25 to 50 µM; in assay [2] it was 21.2 µM. Besides, in assay [3], the “Survival time of skin graft tissue” value was determined as 13.1 ± 0.9 days. The molecule also registered an Arthritis index in assay [4] of 6.0 ± 1.9.

Regarding `CN(CCc1ccc(O)c(O)c1)C(=O)/C=C/c1ccc(O)c(O)c1` [Example 44, 3-(3,4-dihydroxy-phenyl)-N-[2-(3,4-dihydroxy-phenyl)-ethyl]-N-methyl-acrylamide], the IC50 was 25 to 50 µM in assay [1] and 17.4 µM in assay [2]. In assay [3], the “Survival time of skin graft tissue” value worked out at 12.5 ± 0.9 days. Moreover, in assay [4], the Arthritis index came out at 6.8 ± 1.0.

On to `O=C(/C=C/c1ccc(O)c(O)c1)N[C@H](Cc1ccc(O)cc1)C(=O)O` [Example 46, (R)-2-[trans-3-(3,4-dihydroxy-phenyl)-acryloylamino]-3-(4-hydroxy-phenyl)-propionic acid], for which the IC50 in assay [1] is 25 to 50 µM; in assay [2], 19 µM. Also, the “Survival time of skin graft tissue” value in assay [3] is reported as 11.9 ± 0.9 days. For the same molecule, the Arthritis index in assay [4] was determined as 6.1 ± 0.7.

With `COC(=O)[C@H](Cc1ccc(O)cc1)NC(=O)/C=C/c1ccc(O)c(O)c1` [Example 47, (S)-2-[trans-3-(3,4-dihydroxy-phenyl)-acryloylamino]-3-(4-hydroxy-phenyl)-propionic acid methyl ester], the IC50 is 25 to 50 µM in assay [1] and 21 µM in assay [2]. For the same molecule, the “Survival time of skin graft tissue” value in assay [3] amounted to 11.7 ± 1.0 days. Further, the Arthritis index in assay [4] is listed as 6.9 ± 1.1.

As to `O=C(/C=C/c1ccc(O)c(O)c1)N[C@@H](Cc1ccc(O)cc1)C(=O)O` [Example 48, (S)-2-[trans-3-(3,4-dihydroxy-phenyl)-acryloylamino]-3-(4-hydroxy-phenyl)-propionic acid], the IC50 in assay [1] was 25 to 50 µM; in assay [2], 22.3 µM. In addition, the “Survival time of skin graft tissue” value in assay [3] was 12 ± 1.6 days. This molecule also returned an Arthritis index in assay [4] of 7.1 ± 0.4.

With `COC(=O)C(Cc1ccc(O)c(O)c1)NC(=O)NCc1ccc(O)c(O)c1` (centres unmarked) [Example 49, 2-[3-(3,4-dihydroxy-benzyl)-ureido]-3-(3,4-dihydroxy-phenyl)-propionic acid methyl ester], the IC50 is 10 to 25 µM in assay [1] and 20.4 µM in assay [2]. The “Survival time of skin graft tissue” value in assay [3] is reported as 13 ± 1.5 days. The molecule further came in with an Arthritis index in assay [4] of 5.1 ± 0.9.

In the case of `COC(=O)C(Cc1ccc(O)c(O)c1)NC(=O)Cc1ccc(O)c(O)c1` (centres unmarked) [Example 50, 3-(3,4-dihydroxy-phenyl)-2-[2-(3,4-dihydroxy-phenyl)-acetylamino]-propionic acid methyl ester], the IC50 in assay [1] is under 10 µM; in assay [2], 18.6 µM. Also, the “Survival time of skin graft tissue” value in assay [3] is 12.8 ± 0.9 days. Further, in assay [4], the Arthritis index is on record as 4.8 ± 1.1.

As for `COC(=O)C(Cc1ccc(O)c(O)c1)NC(=O)c1ccc(O)c(O)c1` (centres unmarked) [Example 51, 2-(3,4-dihydroxy-benzoylamino)-3-(3,4-dihydroxy-phenyl)-propionic acid methyl ester], the IC50 was under 10 µM in assay [1] and 17.5 µM in assay [2]. Further, the “Survival time of skin graft tissue” value in assay [3] is recorded as 12.5 ± 1.1 days. In assay [4], this molecule returned an Arthritis index of 5.5 ± 0.5.
